What was measured:
Bombus terrestris [1] = assay: Acute oral insecticide bioassay of bumble bees, with or without PBO; settings: for increase in the sensitivity of bumble bees after treatment with PBO: oral bioassay, PBO pretreatment; for LD50: 48 hours after application
Experimental: (§1) Acute contact insecticide assays were performed on female A. mellifera following standard methods OECD 2013 [30]. Bioassays of B. terrestris were based on the OECD guidelines developed for honeybees but with bees assayed in individual Nicot cages. Bees were starved of sucrose solution for up to 2 hr to encourage feeding during the experiment. […] Controls were fed a solution of sucrose containing a concentration of acetone matching that of the highest treatment concentration. After 4-6 hr the syringes were assessed to see if bees had consumed the insecticide-sucrose solution. Those that had not consumed all of the solution were excluded from the experiment. Mortality was assessed 48 hr after feeding and lethal concentrations (LC50 values) were calculated by probit analysis using Genstat version 16 (VSN International). For synergist bioassays, B. terrestris or A. mellifera workers were first treated with 20 μg of piperonyl butoxide or 1 μg of aminobenzotriazole applied to the dorsal thorax. Synergist bioassays included an additional control group treated only with the synergist. 1 hr after synergist application, bees were then treated with the appropriate insecticide dosage as above.

Bombus terrestris [2] = assay: Acute contact (topical) insecticide bioassay of bumble bees; settings: no synergist, 48 hours after application
Experimental: as §1

[3] = tested on: bumble bees (Bombus terrestris); assay: Bumble bee contact and oral bioassays taken together, EPA rating; settings: depends on route of exposure
Experimental: as §1

[4] = target: nicotinic acetylcholine receptor (nAChR); assay: [3H]imidacloprid displacement, bumble bee head membrane preparations; assay type: binding, B. terrestris; settings: bumble bee head membranes; 95% CI given in text
Experimental: (§2) [^3H]imidacloprid (specific activity 1.406 GBq μmol^−1) displacement studies were conducted using membrane preparations isolated from frozen (−80°C) honeybee and bumble bee heads, respectively, following previously published protocols. Briefly, bee heads weighing 10cg were homogenized in 200cml ice-cold 0.1cM potassium phosphate buffer, pH 7.4 containing 95cmM sucrose using a motor-driven Ultra Turrax blender. […] Assays were performed in a 96-well microtiter plate with bonded GF/C filter membrane (Packard UniFilter-96, GF/C) and consisted of 200 μL of homogenate (0.48cmg protein), 25 μL of [^3H]imidacloprid (576cpM) and 25 μL of competing ligand. Ligand concentrations used ranged from 0.001 to 10c000cnM and were tested at least in duplicate per competition assay. The assay was started by the addition of homogenate and incubated for 60cmin at room temperature. Bound [^3H]imidacloprid was quantified by filtration into a second 96-well filter plate (conditioned with ice-cold 100cmM potassium phosphate buffer, pH 7.4 (including BSA 5cg liter−1)) using a commercial cell harvester (Brandel). […] Each well was then loaded with 25 μL of scintillation cocktail (Microszint-O-Filtercount, Packard) and the plate counted in a Topcount scintillation counter (Packard). Non-specific binding was determined using a final concentration of 10cμM unlabelled imidacloprid. […]

honeybees = settings: depends on route of exposure; cited from earlier work
[5] = target: nicotinic acetylcholine receptor (nAChR); assay: [3H]imidacloprid displacement, honeybee head membrane preparations; assay type: binding, A. mellifera; settings: honeybee head membranes; 95% CI given in text
Experimental: as §2

Structure (SMILES)	increase in the sensitivity of bumble bees after treatment with PBO (Bombus terrestris [1])	Synergism Ratio (Bombus terrestris [1]; oral, PBO versus no synergist)	LD50 (Bombus terrestris [1]; oral, no synergist) [μg/bee]	LD50 (Bombus terrestris [1]; oral, synergist PBO) [μg/bee]	LD50 (Bombus terrestris [2]) [μg/bee]	EPA toxicity category [3]	IC50 [4] [nM]	EPA toxicity category (honeybees)	IC50 [5] [nM]
O=[N+]([O-])NC1=NCCN1Cc1ccc(Cl)nc1 [imidacloprid]	no significant shift	1.2	0.038	0.032	0.38	highly toxic	0.71	highly toxic	1.2
N#C/N=C1\SCCN1Cc1ccc(Cl)nc1 [thiacloprid]	4.2 fold		19.68	4.73	> 100	slightly toxic” or “practically non-toxic	0.62	slightly toxic” or “practically non-toxic	1.1
